Laboratory results reported in patent US7442710B2, “Substituted phenyl methanones” (Hoffman-La Roche Inc., priority 2005, dated 2008).

Target: T1, mGlyT-1b (Mus musculus, UniProt P28571)
T1 construct: host or cells: Flp-in-CHO cells, stably transfected
T1 sequence (P28571 1-651 isoform P28571-2): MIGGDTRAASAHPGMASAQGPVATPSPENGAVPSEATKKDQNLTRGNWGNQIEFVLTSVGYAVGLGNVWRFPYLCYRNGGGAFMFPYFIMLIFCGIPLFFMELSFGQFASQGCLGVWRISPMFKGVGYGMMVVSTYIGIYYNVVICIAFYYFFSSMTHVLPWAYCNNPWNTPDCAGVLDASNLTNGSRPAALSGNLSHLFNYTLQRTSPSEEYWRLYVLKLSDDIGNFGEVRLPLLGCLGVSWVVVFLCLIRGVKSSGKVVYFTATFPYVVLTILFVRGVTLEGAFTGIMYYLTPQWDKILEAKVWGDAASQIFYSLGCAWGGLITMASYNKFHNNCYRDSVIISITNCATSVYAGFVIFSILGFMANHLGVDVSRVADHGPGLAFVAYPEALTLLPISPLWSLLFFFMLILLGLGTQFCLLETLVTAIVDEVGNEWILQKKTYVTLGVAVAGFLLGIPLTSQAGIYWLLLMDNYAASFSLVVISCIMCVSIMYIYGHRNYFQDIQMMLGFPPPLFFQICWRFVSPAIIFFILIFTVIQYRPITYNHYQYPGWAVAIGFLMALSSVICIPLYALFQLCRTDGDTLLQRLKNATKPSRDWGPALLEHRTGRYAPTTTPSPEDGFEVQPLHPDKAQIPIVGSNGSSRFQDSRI
Experiment: Glycine uptake inhibition assay (mGlyT-1b)
Type: cell-based
Settings: [3H]-glycine uptake, Flp-in-CHO cells transfected with mGlyT-1b cDNA
Protocol: DMEM complete medium: Nutrient mixture F-12 (Gibco Life-technologies), fetal bovine serum (FBS) 5%, (Gibco life technologies), Penicillin/Streptomycin 1% (Gibco life technologies), Hygromycin 0.6 mg/ml (Gibco life technologies), Glutamine 1 mM Gibco life technologies).
Uptake buffer (UB): 150 mM NaCl, 10 mM Hepes-Tris, pH 7.4, 1 mM CaCl2, 2.5 mM KCl, 2.5 mM MgSO4, 10 mM (+) D-glucose. Flp-in™-CHO (Invitrogen Cat n° R758-07)cells stably transfected with mGlyT1b cDNA.
Glycine uptake inhibition assay (mGlyT-1b)
On day 1 mammalian cells, (Flp-in™-CHO), transfected with mGlyT-1b cDNA, were plated at the density of 40,000 cells/well in complete F-12 medium, without hygromycin in 96-well culture plates. On day 2, the medium was aspirated and the cells were washed twice with uptake buffer (UB). The cells were then incubated for 20 min at 22° C. with either (i) no potential competitor, (ii) 10 mM non-radioactive glycine, (iii) a concentration of a potential inhibitor. A range of concentrations of the potential inhibitor was used to generate data for calculating the concentration of inhibitor resulting in 50% of the effect (e.g. IC50, the concentration of the competitor inhibiting glycine uptake of 50%). A solution was then immediately added containing [^3H]-glycine 60 nM (11-16 Ci/mmol) and 25 μM non-radioactive glycine. The plates were incubated with gentle shaking and the reaction was stopped by aspiration of the mixture and washing (three times) with ice-cold UB. The cells were lysed with scintillation liquid, shaken 3 hours and the radioactivity in the cells was counted using a scintillation counter.

IC50 | Compound
82 nM | CS(=O)(=O)c1ccc(-c2ccccc2)c(C(=O)N2CCc3nc(C(F)(F)F)ccc3C2)c1 [Example 1.8, (4-Methanesulfonyl-biphenyl-2-yl)-(2-trifluoromethyl-7,8-dihydro-5H-[1,6]naphthyridin-6-yl)-methanone]
46 nM | CC(C)Oc1ccc(S(C)(=O)=O)cc1C(=O)N1CCc2cc(C(F)(F)F)ccc2C1 [Example 1.12, (2-Isopropoxy-5-methanesulfonyl-phenyl)-(6-trifluoromethyl-3,4-dihydro-1H-isoquinolin-2-yl)-methanone]
321 nM | CS(=O)(=O)c1ccc(N2CCOCC2)c(C(=O)N2CCc3cc(C(F)(F)F)ccc3C2)c1 [Example 1.13, (5-Methanesulfonyl-2-morpholin-4-yl-phenyl)-(6-trifluoromethyl-3,4-dihydro-1H-isoquinolin-2-yl)-methanone]
175 nM | C[C@H](Oc1ccc(S(C)(=O)=O)cc1C(=O)N1CCc2cc(C(F)(F)F)ccc2C1)C(F)(F)F [Example 1.14, [5-Methanesulfonyl-2-((S)-2,2,2-trifluoro-1-methyl-ethoxy)-phenyl]-(6-trifluoromethyl-3,4-dihydro-1H-isoquinolin-2-yl)-methanone]
168 nM | CS(=O)(=O)c1ccc(-c2ccccc2)c(C(=O)N2CCc3cc(C(F)(F)F)ccc3C2)c1 [Example 1.15, (4-Methanesulfonyl-biphenyl-2-yl)-(6-trifluoromethyl-3,4-dihydro-1H-isoquinolin-2-yl)-methanone]
157 nM | C[C@H](Oc1ccc(S(C)(=O)=O)cc1C(=O)N1CCc2cc(Cl)ccc2C1)C(F)(F)F [Example 1.18, (6-Chloro-3,4-dihydro-1H-isoquinolin-2-yl)-[5-methanesulfonyl-2-((S)-2,2,2-trifluoro-1-methyl-ethoxy)-phenyl]-methanone]
359 nM | CC(C)Oc1ccc(S(C)(=O)=O)cc1C(=O)N1CCc2cc(Cl)ccc2C1 [Example 1.19, (6-Chloro-3,4-dihydro-1H-isoquinolin-2-yl)-(2-isopropoxy-5-methanesulfonyl-phenyl)-methanone]
454 nM | CC(C)Oc1ccc(S(C)(=O)=O)cc1C(=O)N1CCc2cc(C#N)ccc2C1 [Example 1.20, 2-(2-Isopropoxy-5-methanesulfonyl-benzoyl)-1,2,3,4-tetrahydro-isoquinoline-6-carbonitrile]
215 nM | CC(C)Oc1ccc(S(C)(=O)=O)cc1C(=O)N1CCc2ccc(Cl)cc2C1 [Example 1.25, (7-Chloro-3,4-dihydro-1H-isoquinolin-2-yl)-(2-isopropoxy-5-methanesulfonyl-phenyl)-methanone]
163 nM | CC(C)Oc1ccc(S(C)(=O)=O)cc1C(=O)N1CCc2ccc(Cl)c(Cl)c2C1 [Example 1.26, (7,8-Dichloro-3,4-dihydro-1H-isoquinolin-2-yl)-(2-isopropoxy-5-methanesulfonyl-phenyl)-methanone]
344 nM | CC(C)Oc1ccc(S(C)(=O)=O)cc1C(=O)N1CCc2cccc(Cl)c2C1 [Example 1.30, (8-Chloro-3,4-dihydro-1H-isoquinolin-2-yl)-(2-isopropoxy-5-methanesulfonyl-phenyl)-methanone]
481 nM | COc1ccc2c(c1)CCN(C(=O)c1cc(S(C)(=O)=O)ccc1OC(C)C)C2 [Example 1.40, (2-Isopropoxy-5-methanesulfonyl-phenyl)-(6-methoxy-3,4-dihydro-1H-isoquinolin-2-yl)-methanone]
159 nM | CC(C)Oc1ccc(S(C)(=O)=O)cc1C(=O)N1CCc2c(ccc3c4ccccc4n(C)c23)C1 [Example 1.47, (2-Isopropoxy-5-methanesulfonyl-phenyl)-(11-methyl-1,2,4,11-tetrahydro-pyrido[4,3-a]carbazol-3-yl)-methanone]
483 nM | Cc1c2c(c(C)c3c1OCO3)CN(C(=O)c1cc(S(C)(=O)=O)ccc1OC(C)C)CC2 [Example 1.53]
160 nM | CC(C)Sc1ccc(S(C)(=O)=O)cc1C(=O)N1CCc2cc(Cl)ccc2C1 [Example 1.57, (6-Chloro-3,4-dihydro-1H-isoquinolin-2-yl)-(2-isopropylsulfanyl-5-methanesulfonyl-phenyl)-methanone]
